The source of these data is patent US4230617A, “Somatostatin analogues” (American Home Products Corporation, priority 1979, dated 1980).

Structures can show the parent of a compound that is named as a salt. Positions of bridges follow the written chain, without caps; N, C: chain ends. Non-standard residues stand in square brackets, D forms with d. Residues, ends and D or L forms follow the SMILES beside them.

Common to all, as to assay type: in vivo, albino male rats
The subject of assay [1] is insulin. The experiment in a line: Arginine-stimulated insulin release in Nembutal-anesthetized rats, blood radioimmunoassay. The following applies: rat. Here is the method: (§1) The in vivo activity of the polypeptides of this invention was established by subjecting the product of Examples 2 and 3 as representative compounds of the invention, to the following standard test procedure: Two groups of ten albino male rats were arranged to provide a control group and a group for study of the compounds of this invention. Nembutal (50 mg/kg) was injected intraperitoneally into each rat. Fifteen minutes late a subcutaneous injection of the test compound or physiological saline (control) was administered separately to each of the two groups of rats. Ten minutes later 0.5 milliliters of arginine (300 mg/ml., pH 7.2) was injected into the rats heart. The rats were decapitated five minutes later and their blood was collected in Trasylol-EDTA. Aliquot samples were radioimmunoassayed for growth hormone, insulin and glucagon.

Assay [2] concerns growth hormone. The experiment in a line: Arginine-stimulated growth hormone release in Nembutal-anesthetized rats, blood radioimmunoassay. The settings on record: rat, * p < 0.01. Here is the method:
as §1

Assay [3] deals with growth hormone. The experiment in a line: Duration test: same procedure with 2 and 4 hour period before blood sampling, growth hormone radioimmunoassay. The following applies: rat, 1,000 ug/kg. How it is done:
as §1, with “glucagon. The results of these tests are presented below:” for “glucagon.”
The procedure described in the preceding paragraph was repeated with the exception that a 2 and 4 hour period was allowed to elapse before blood sampling.

The test system of assay [4] is glucagon. The experiment in a line: Arginine-stimulated glucagon release in Nembutal-anesthetized rats, blood radioimmunoassay. The settings on record: rat. Here is the method:
as §1

[5] abbreviates: 2 hours before blood sampling, * p < 0.01.
[6] abbreviates: 4 hours before blood sampling, + p < 0.05.
[7] abbreviates: summary statement, for periods up to about four hours.

As to `C[C@@H](O)[C@@H]1NC(=O)[C@H](Cc2ccccc2)NC(=O)[C@H]([C@@H](C)O)NC(=O)[C@H](CCCCN)NC(=O)[C@@H](Cc2c[nH]c3ccccc23)NC(=O)[C@H](Cc2c[nH]cn2)NC(=O)[C@H](Cc2ccccc2)NC(=O)[C@H](Cc2c[nH]cn2)NC(=O)[C@H](CCCNC(=N)N)NC(=O)[C@@H](N)CSSC[C@@H](C(=O)O)NC(=O)[C@H](CO)NC1=O` [Example 3, L-Cysteinyl-L-arginyl-L-histidyl-L-phenylalanyl-L-histidyl-D-tryptophyl-L-lysyl-L-threonyl-L-phenylalanyl-L-threonyl-L-seryl-L-cysteine cyclic (1-12) disulfide tetraacetate salt] (H-CRHFH[dW]KTFTSC-OH; disulfide 1-12), in assay [1] (100 μg/kg subcutaneous, control 268 ± 21), the INS is recorded as 282 ± 48 μU/ml. Moreover, the GH in assay [2] (100 μg/kg subcutaneous, control 201 ± 40) was determined as 48 ± 20 ng/mL; in assay [3] (setting [5]) it was 181 ± 59 ng/mL; in assay [3] (setting [6]), 129 ± 29 ng/mL. For the same compound, the GLUN in assay [4] (100 μg/kg subcutaneous, control 89 ± 14) is 72 ± 13 pg/mL.

`C[C@@H](O)[C@@H]1NC(=O)[C@H](Cc2ccccc2)NC(=O)[C@H]([C@@H](C)O)NC(=O)[C@H](CCCCN)NC(=O)[C@@H](Cc2c[nH]c3ccccc23)NC(=O)[C@H](Cc2c[nH]c3ccccc23)NC(=O)[C@H](Cc2ccccc2)NC(=O)[C@H](Cc2c[nH]cn2)NC(=O)[C@H](CCCNC(=N)N)NC(=O)[C@@H](N)CSSC[C@@H](C(=O)O)NC(=O)[C@H](CO)NC1=O` [Example 2, L-Cysteinyl-L-arginyl-L-histidyl-L-phenylalanyl-L-tryptophyl-D-tryptophyl-L-lysyl-L-threonyl-L-phenylalanyl-L-threonyl-L-seryl-L-cysteine cyclic (1-12) disulfide tetraacetate salt] (H-CRHFW[dW]KTFTSC-OH; disulfide 1-12): the INS in assay [1] (50 μg/kg subcutaneous, control 137 ± 25) is 61 ± 4 μU/ml; in assay [1] (200 μg/kg subcutaneous, control 238 ± 23, + p < 0.05), 149 ± 23 μU/ml. Moreover, in assay [1] (setting [7]), the “insulin release (result in words)” value is on record as “suppress”. Moreover, the GH in assay [2] (50 μg/kg subcutaneous, control 379 ± 50) is 104 ± 8 ng/mL; in assay [2] (200 μg/kg subcutaneous, control 202 ± 11), 92 ± 8 ng/mL; in assay [3] (setting [5]), 51 ± 9 ng/mL; in assay [3] (setting [6]) it was 60 ± 11 ng/mL. Also, the GLUN in assay [4] (50 μg/kg subcutaneous, control 119 ± 8, * p < 0.01) amounted to 36 ± 8 pg/mL; in assay [4] (200 μg/kg subcutaneous, control 85 ± 6, * p < 0.01), 20 ± 4 pg/mL. Further, the “glucagon release (result in words)” value in assay [4] (setting [7]) was “suppress”.
